{"source": "patent US20060286105A1", "about": "“Tgf-beta antagonists combined with renin-angiotensin-aldosteron-system antagonists for treating renal insufficiency” (priority 2003, published 2006)", "key": {"[1]": {"test_system": "diabetic rats", "experiment": "Proteinuria, early phase treatment of diabetic nephropathy (Example 8)", "format": "in vivo, rat", "details": "therapy weeks 27 to 52 after STZ, 1D11 0.5 mg/kg i.p. 3x/week, enalapril 15 mg/l drinking water, FIG. 7", "procedure": "Male Sprague-Dawley rats with initial body weight of 250-275 g were studied. All animals were allowed free access to standard diet and tap water. Diabetes was induced by a single intravenous injection of streptozotocin (60 mg/kg body weight). The presence of diabetes was confirmed 2 days later by the measurement of the tail blood glucose level with a reflectance meter. Diabetic rats received daily evening injections of insulin in doses individually adjusted to maintain a blood glucose level between 200 and 450 mg/dl. Blood glucose levels were monitored at least once a week in all diabetic rats and occasionally in control animals for comparison.\nDiabetic rats were divided into 3 groups (n=6 each): group 1 received a control antibody, 13C4; groups 2 and 3 received 1D11 (0.5 mg/kg i.p. three times a week) or enalapril (15 mg/l in the drinking water), respectively from 27 to 52 weeks; group 4 was normal rats.\n(§1) Urinary excretion of proteins was measured in 24 hr urine samples collected in metabolic cages at baseline, 18, 27, 36, 45, and 52 weeks by the modified Coomassie blue G dye-binding assay for proteins.\nThe statistical analysis was performed using the nonparametric Kruskal-Wallis test for multiple comparisons."}, "[2]": {"test_system": "diabetic rats", "experiment": "Urinary albumin excretion by ELISA, early phase treatment (Example 8)", "format": "in vivo, rat", "details": "weeks 27 to 52, at 52 weeks, mean ± SE", "procedure": "Male Sprague-Dawley rats with initial body weight of 250-275 g were studied. All animals were allowed free access to standard diet and tap water. Diabetes was induced by a single intravenous injection of streptozotocin (60 mg/kg body weight). […] Blood glucose levels were monitored at least once a week in all diabetic rats and occasionally in control animals for comparison. Diabetic rats were divided into 3 groups (n=6 each): group 1 received a control antibody, 13C4; groups 2 and 3 received 1D11 (0.5 mg/kg i.p. three times a week) or enalapril (15 mg/l in the drinking water), respectively from 27 to 52 weeks; group 4 was normal rats. […] The statistical analysis was performed using the nonparametric Kruskal-Wallis test for multiple comparisons."}, "[3]": {"test_system": "diabetic rats", "experiment": "Renal histology, early phase treatment (Example 8)", "format": "in vivo, rat", "details": "weeks 27 to 52, 52 weeks, mean ± SE", "procedure": "Male Sprague-Dawley rats with initial body weight of 250-275 g were studied. All animals were allowed free access to standard diet and tap water. Diabetes was induced by a single intravenous injection of streptozotocin (60 mg/kg body weight). […] Blood glucose levels were monitored at least once a week in all diabetic rats and occasionally in control animals for comparison. […] Renal morphology was assessed as glomerulosclerosis, interstitial inflammation and tubular damage. Specifically, the removed kidneys were fixed overnight in Dubosq-Brazil, dehydrated in alcohol, and embedded in paraffin. Kidney samples were sectioned at 3-μm intervals, and the sections were stained with Masson's trichrome, hematoxylin and eosin, or periodic-acid Schiff reagent (PAS stain). […] All renal biopsies were analyzed by the same pathologist who was unaware of the nature of the experimental groups. The statistical analysis was performed using the nonparametric Kruskal-Wallis test for multiple comparisons."}, "[4]": {"test_system": "diabetic rats", "experiment": "Systolic blood pressure by tail cuff, early phase treatment (Example 8)", "format": "in vivo, rat", "details": "mean ± SE", "procedure": "Male Sprague-Dawley rats with initial body weight of 250-275 g were studied. All animals were allowed free access to standard diet and tap water. Diabetes was induced by a single intravenous injection of streptozotocin (60 mg/kg body weight). […] Blood glucose levels were monitored at least once a week in all diabetic rats and occasionally in control animals for comparison. Diabetic rats were divided into 3 groups (n=6 each): group 1 received a control antibody, 13C4; groups 2 and 3 received 1D11 (0.5 mg/kg i.p. three times a week) or enalapril (15 mg/l in the drinking water), respectively from 27 to 52 weeks; group 4 was normal rats. Systolic blood pressure was measured every two months after diabetic induction by the tail cuff method. The statistical analysis was performed using the nonparametric Kruskal-Wallis test for multiple comparisons."}, "[5]": {"test_system": "diabetic rats", "experiment": "Serum creatinine, early phase treatment (Example 8)", "format": "in vivo, rat", "details": "weeks 27 to 52, 52 weeks, mean ± SE", "procedure": "Male Sprague-Dawley rats with initial body weight of 250-275 g were studied. All animals were allowed free access to standard diet and tap water. Diabetes was induced by a single intravenous injection of streptozotocin (60 mg/kg body weight). […] Blood glucose levels were monitored at least once a week in all diabetic rats and occasionally in control animals for comparison. […] Serum creatinine was measured at the end of the study by autoanalyzer (CX5 Beckman). The statistical analysis was performed using the nonparametric Kruskal-Wallis test for multiple comparisons."}, "[6]": {"test_system": "diabetic rats", "experiment": "Proteinuria, late phase treatment of diabetic nephropathy (Example 9)", "format": "in vivo, rat", "details": "therapy weeks 52 to 61 after STZ, 1D11 0.5 mg/kg i.p. 3x/week, enalapril 15 mg/l drinking water, FIG. 8", "procedure": "as §1\nDiabetic rats were kept as described in Example 8 and were divided into 4 groups (n=5-6 each) and given from 52 to 61 weeks after the diabetis induction the following: the irrelevant antibody 13C4; the anti-TGF-β antibody 1D11 (0.5 mg/kg i.p. three times a week); the ACE inhibitor enalapril (15 mg/l in the drinking water), or the combination of 1D11 and enalapril. Five normal rats were used as controls. Systolic blood pressure was measured every two months after diabetes induction. Urinary excretion of proteins was measured in 24 hour urine samples collected in metabolic cages at baseline, 18, 27, 36, 45, 52, and 61 weeks. All measurements and data analysis were performed as described in Example 8."}, "[7]": {"test_system": "diabetic rats", "experiment": "Urinary albumin excretion, late phase treatment (Example 9)", "format": "in vivo, rat", "details": "weeks 52 to 61, at 61 weeks, mean ± SE", "procedure": "(§2) Five normal rats were used as controls. Systolic blood pressure was measured every two months after diabetes induction. […] All measurements and data analysis were performed as described in Example 8."}, "[8]": {"test_system": "diabetic rats", "experiment": "Renal histology, late phase treatment (Example 9)", "format": "in vivo, rat", "details": "weeks 52 to 61, 61 weeks, mean ± SE", "procedure": "Renal morphology was assessed as glomerulosclerosis, interstitial inflammation and tubular damage. Specifically, the removed kidneys were fixed overnight in Dubosq-Brazil, dehydrated in alcohol, and embedded in paraffin. Kidney samples were sectioned at 3-μm intervals, and the sections were stained with Masson's trichrome, hematoxylin and eosin, or periodic-acid Schiff reagent (PAS stain). […] All renal biopsies were analyzed by the same pathologist who was unaware of the nature of the experimental groups. […] Five normal rats were used as controls. Systolic blood pressure was measured every two months after diabetes induction. […] All measurements and data analysis were performed as described in Example 8."}, "[9]": {"test_system": "diabetic rats", "experiment": "Systolic blood pressure, late phase treatment (Example 9)", "format": "in vivo, rat", "details": "mean ± SE", "procedure": "as §2, with “Systolic blood pressure was measured every two months after diabetic induction by the tail cuff method. […] Five” for “Five”"}, "[10]": {"test_system": "diabetic rats", "experiment": "Serum creatinine, late phase treatment (Example 9)", "format": "in vivo, rat", "details": "weeks 52 to 61, 61 weeks, mean ± SE", "procedure": "Serum creatinine was measured at the end of the study by autoanalyzer (CX5 Beckman). […] Five normal rats were used as controls. Systolic blood pressure was measured every two months after diabetes induction. […] All measurements and data analysis were performed as described in Example 8."}, "[11]": {"test_system": "diabetic rats", "experiment": "Systolic blood pressure by tail plethysmography in diabetic rats (Example 3)", "format": "in vivo, rat", "details": "uninephrectomized STZ-diabetic rats; treated months 4-8; antibody 0.5 mg/kg i.p. 3x/week, lisinopril 12.5 mg/l drinking water; FIG. 2", "procedure": "Male Sprague-Dawley rats with initial body weights of 250 to 300 g were used in this study. Animal care and treatment were conducted in accordance with the U.S. […] All animals were housed in a room in which the temperature was kept constant on a 12-hour dark/12-hour light cycle and allowed free access to standard diet containing 20% protein by weight and tap water. The animals were subjected to unilateral nephrectomy under anaesthesia one week prior to the induction of diabetes to accelerate the onset of renal disease. The animals were rendered diabetic by a single intravenous (i.v.) injection of streptozotocin (STZ, Zanosar, Upjohn, Kalamazoo, Mich.; 60 mg/kg body weight). Food and water consumption, weight gain and the blood glucose levels were monitored to determine the degree of diabetes. The blood was obtained from the tip of the tails and analyzed by a modified glucose dehydrogenase method. […] Four months, after the induction of diabetes, animals were divided into seven groups of eight (unless otherwise indicated), which were treated for the next four months as follows: Animals were treated as described in Example 1. Systolic blood pressure at the end of the treatment period was recorded by tail plethysmography in conscious rats as described in Pfeffer et al."}, "[12]": {"test_system": "diabetic rats", "experiment": "Glomerular sclerosis, renal histology in diabetic rats (Example 4)", "format": "in vivo, rat", "details": "uninephrectomized STZ-diabetic rats; treated months 4-8; antibody 0.5 mg/kg i.p. 3x/week, lisinopril 12.5 mg/l drinking water; FIG. 3", "procedure": "Animals were treated as described in Example 1. At the end of the study, rat kidneys were harvested and fixed with 5% buffered formalin solution, embedded in paraffin, sectioned and stained with periodic acid-Schiff (PAS) for light microscopy analyses.\nGlomerular diameters were measured and the degree of matrix expansion and glomerular injury was assessed on a minimum of 100 glomeruli/section. The degree of glomerulosclerosis was scored as previously described (Raij et al. (1984) Kidney Int., 26:137-143). The percentage of glomerular sclerosis was determined by an unbiased, trained pathologist who recorded pathologic changes using a 0-4 scale (score of 0 indicates no damage; 1+ indicates changes affecting less than 25% of the samples; 2+ indicates changes affecting 25- 50% of the sample; 3+, changes affecting 50-75% of the sample; 4+ changes affecting 75-100% of the sample)."}, "[13]": {"target": "TGF-β", "experiment": "Antigen affinity and isoform specificity of anti-TGF-β antibodies", "format": "binding", "excerpt": "The epitopes for 1[…] al. (1998) J. Immunol., 142:1536-1541) and CAT192 have been mapped to the C-terminal portion of mature TGF-β."}}, "note": "pKd: −log10 of the molar value.", "data": [{"compound": "CCOC(=O)[C@H](CCc1ccccc1)N[C@@H](C)C(=O)N1CCC[C@H]1C(=O)O", "note": "[enalapril, 1-[N-[(S)-1-carboxy-3-phenylpropyl]-L-alanyl]-L-proline-1′-ethyl ester]", "values": [{"measurement": "proteinuria (in words)", "setting": "[1]", "value": "similarly efficacious in reducing proteinuria"}, {"measurement": "Urinary albumin excretion", "setting": "[2]", "value": "4.70 ± 0.83*°# mg/day"}, {"measurement": "Interstitial inflammation (score)", "setting": "[3]; graded 0 to 4+", "value": "0.33 ± 0.21", "unit": "score"}, {"measurement": "Tubular damage (score)", "setting": "[3]; graded 0 to 4+", "value": "0.50 ± 0.22", "unit": "score"}, {"measurement": "Glomeruli with sclerotic changes", "setting": "[3]", "value": "1.53 ± 0.32", "unit": "° %"}, {"measurement": "Systolic blood pressure", "setting": "[4]; early phase study, week 27, before treatment (baseline of group)", "value": "148.33 ± 2.47", "unit": "mmHg"}, {"measurement": "Systolic blood pressure", "setting": "[4]; early phase treatment from week 27, week 36", "value": "127.50 ± 2.81**°° mmHg"}, {"measurement": "Systolic blood pressure", "setting": "[4]; early phase treatment from week 27, week 45", "value": "118.33 ± 2.47", "unit": "°° mmHg"}, {"measurement": "Systolic blood pressure", "setting": "[4]; early phase treatment from week 27, week 52", "value": "117.50 ± 2.14", "unit": "°° mmHg"}, {"measurement": "Serum creatinine", "setting": "[5]", "value": "0.49 ± 0.07", "unit": "mg/dL"}, {"measurement": "proteinuria (in words)", "setting": "[6]", "value": "similarly efficacious in reducing proteinuria"}, {"measurement": "Urinary albumin excretion", "setting": "[7]", "value": "30.40 ± 15.08", "unit": "mg/day"}, {"measurement": "Interstitial inflammation (score)", "setting": "[8]; graded 0 to 4+", "value": "0.60 ± 0.24", "unit": "score"}, {"measurement": "Tubular damage (score)", "setting": "[8]; graded 0 to 4+", "value": "0.60 ± 0.24", "unit": "score"}, {"measurement": "Glomeruli with sclerotic changes", "setting": "[8]", "value": "4.60 ± 2.19", "unit": "%"}, {"measurement": "Systolic blood pressure", "setting": "[9]; late phase study, week 36, before therapy (given weeks 52 to 61)", "value": "158.33 ± 2.79", "unit": "mmHg"}, {"measurement": "Systolic blood pressure", "setting": "[9]; late phase study, week 52, start of therapy (given weeks 52 to 61)", "value": "165.00 ± 2.89", "unit": "mmHg"}, {"measurement": "Systolic blood pressure", "setting": "[9]; late phase treatment, weeks 52 to 61, week 61", "value": "135.00 ± 1.58**°° mmHg"}, {"measurement": "Serum creatinine", "setting": "[10]", "value": "0.56 ± 0.07", "unit": "mg/dL"}]}, {"compound": "NCCCC[C@H](N[C@@H](CCc1ccccc1)C(=O)O)C(=O)N1CCC[C@H]1C(=O)O", "note": "[lisinopril, 1-[N2-[(S)-1-carboxy-3-phenylpropyl]-L-lysyl]-L-proline]", "values": [{"measurement": "systolic blood pressure at end of treatment", "setting": "[11]", "value": "limited blood pressure increase to a similar extent as 1D11"}, {"measurement": "percentage of glomeruli with sclerotic changes (in words)", "setting": "[12]", "value": "limited the percentage of glomeruli with sclerosis to a similar degree as 1D 11"}]}, {"compound": "CAT192: fully human monoclonal anti-TGF-β1 antibody generated by phage display, described in WO 00/66631", "values": [{"measurement": "pKd", "setting": "[13]", "value": "~11.08"}, {"measurement": "TGF-β isoform binding specificity", "setting": "[13]", "value": "specifically binds TGF-β only"}, {"measurement": "systolic blood pressure at end of treatment", "setting": "[11]", "value": "displayed an anti-hypertensive effect"}]}]}
